Measured values from patent US7332523B2, “TNP-470 polymer conjugates and use thereof” (Children's Medical Center Corporation, priority 2002, dated 2008).

Columns and labels:
[1] = cited from earlier work
[2] = test system: murine, human and metastatic tumors; settings: mice; mostly 30 mg/kg subcutaneously every other day; cited from earlier work
[3] = Early mouse development (body weight of newborn mice); settings: injected into 7 and 17 day-old BALB/c mice
LLC = test: Antitumor activity in C57BL/6J mice bearing s.c. LLC; settings: 30 mg/kg q.o.d. (data not shown)
[4] = at doses where antitumor activity has been seen; cited from earlier work
liver regeneration = test: Hepatectomy model (liver regeneration); type: in vivo, C57BL/6J mice
Method: Male C57BL/6J mice underwent a partial hepatectomy through a midline incision after general anesthesia with isoflourane^33. Free or conjugated TNP-470 (30 mg/kg) were given s.c. every other day for 8 days beginning on the day of surgery according to the scheme described in FIG. 4a. Alternatively, the doses given were 60 mg/kg the day of surgery and 4 days later or 120 mg/kg once on the day of the partial hepatectomy. The liver was harvested on the 8th day, weighed and analyzed by histology.

A2058 human melanoma = test: Antitumor activity in SCID mice bearing s.c. A2058 human melanoma; type: in vivo
Description: Each group consisted of 5 mice.

chick aortic ring = test: Chick aortic ring endothelial sprouting assay; type: cell-based
Method: Aortic arches were dissected from day-14 chick embryos, cut into cross-sectional fragments, and implanted in vitro in Matrigel using a modification of methods previously described (V. Muthukkaruppan, personal communication). When cultured in MCDB-131 medium supplemented with 5% fetal bovine serum, endothelial cells sprouted and vascular channel formation occurred within 24-48 hours.

[5] = clinical pharmacokinetics, comparison value in words; cited from earlier work

SMILES: CO[C@@H]1[C@H](OC(=O)NC(=O)CCl)CC[C@]2(CO2)[C@H]1[C@@]1(C)O[C@@H]1CC=C(C)C [TNP-470, O-(chloracetyl-carbamoyl) fumagillol]
- body weight in animals ([1]; animals receiving TNP-470): weight loss or failure to gain weight
- toxicity to mice at the higher doses ([1]; doses of 60 and 90 mg/kg/q.o.d., mice): known to be toxic
- splenic weight ([1]; two reports): decrease in splenic weight
- inhibition of growth of human tumors [2]: up to 100%
- inhibition of growth of metastatic tumors [2]: up to 100%
- inhibition of growth of murine tumors [2]: up to 91%
- effect on growth / weight gain in normal development [3]: inhibited growth, by inhibiting weight gain
- weight loss (LLC): did
- adverse effects in patients [4]: neurotoxicity (malaise, rare seizures, asthenia, anxiety and dysphoria)
- inhibition of liver regeneration (liver regeneration; 60 mg/kg every four days (q.4.d.)): did not inhibit liver regeneration
- inhibition of liver regeneration (liver regeneration; single injection of 120 mg/kg on the day of hepatectomy): did not inhibit liver regeneration
- T/C (mean tumor volume treated / untreated control) (A2058 human melanoma; 30 mg/kg TNP-equiv.): 0.34
- survival (A2058 human melanoma; free or conjugated TNP-470, 30 mg/kg TNP-equiv.): increased survival
- effect on vascular sprouts (chick aortic ring; 50 pg/ml): reduced the number and length of vascular sprouts
- effect on vascular sprouts (chick aortic ring; 100 pg/ml): completely prevented outgrowth

SMILES: COc1cccc2c1C(=O)c1c(O)c3c(c(O)c1C2=O)C[C@@](O)(C(=O)CO)C[C@@H]3O[C@H]1C[C@H](N)[C@H](O)[C@H](C)O1 [doxorubicin]
- t1/2α [5]: few minutes
